Experimental data from patent US20220016215A1, “GIP RECEPTOR AGONIST PEPTIDE COMPOUNDS AND USES THEREOF” (TAKEDA PHAARMACEUTICAL COMPANY LIMITED, priority 2018, published 2022).
“And” between values parts separate entries of the source, which are not always exact repeats. Equal entries are not always repeated. Marks after values point to notes of the source that are not given here.

How the values were obtained:
[1] = target: T1, human GIPR (Homo sapiens, UniProt P48546); experiment: Agonist activity on human GIPR, CRE-luciferase reporter assay (increase in intracellular cAMP as indicator); format: cell-based; conditions: GLP1R EC50 / GIPR EC50
T1 construct: expressed in transfected cells
T1 sequence (P48546 22-466): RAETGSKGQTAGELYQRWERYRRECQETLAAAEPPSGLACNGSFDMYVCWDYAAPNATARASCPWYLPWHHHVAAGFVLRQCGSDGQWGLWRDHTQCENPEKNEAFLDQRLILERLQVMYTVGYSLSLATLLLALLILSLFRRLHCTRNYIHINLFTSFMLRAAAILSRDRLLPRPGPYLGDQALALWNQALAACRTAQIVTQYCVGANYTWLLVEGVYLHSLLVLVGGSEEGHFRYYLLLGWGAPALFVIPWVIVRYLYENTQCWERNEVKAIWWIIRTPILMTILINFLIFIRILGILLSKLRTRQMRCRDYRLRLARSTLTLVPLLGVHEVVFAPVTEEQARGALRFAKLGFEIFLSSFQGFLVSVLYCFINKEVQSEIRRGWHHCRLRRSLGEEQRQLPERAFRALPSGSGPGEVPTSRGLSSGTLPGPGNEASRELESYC
Text: The human GIPR gene having an identical sequence to Genebank Accession No. U39231 is cloned into a pMSRα-neo vector to prepare hGIPR/pMSRα-neo.
(2) Construction of Reporter Plasmid Expressing Cell
Luciferase reporter gene with a cAMP-responsive sequence located upstream is transferred to a CHO-K1 cell to construct a CRE-LUC/CHO-K1 cell.
(4) Transfer of Human GIPR Gene to CRE-LUC/CHO-K1 Cell and Obtaining of Expressing Cell
The plasmid hGIPR/pMSRα-neo obtained in (1) is transferred to the CRE-LUC/CHO-K1 cell obtained in (2) to obtain a transformant. Subsequently, the cell line inducing the luciferase expression, hGIPR/CRE-LUC/CHO-K1 cell, is selected from the obtained transformant by adding GIP.
25 μL each of the hGIPR/CRE-LUC/CHO-K1 cell is inoculated in a 384-well white plate (Corning) in such a way as to provide 5×10^3 cells/well and may be cultured in a HamF12 medium containing 10% fetal bovine serum, 100 U/mL penicillin, and 100 μg/mL streptomycin in a CO2 incubator at 37° C. overnight. 5 μL of a medium containing a test compound is added to the cells and incubated for 4 hours at the indicated concentration in a CO2 incubator at 37° C. Steady-Glo (Promega) is added in amounts of 30 μL and shaken under light shielding. Twenty minutes later, luciferase activity is measured using a plate reader Envision (PerkinElmer). The GIPR agonist activity is calculated with increase in intracellular cAMP concentration as the indicator when the luciferase activity in the presence of 10 nM of GIP was 100% and the luciferase activity in the case of adding DMSO instead of the test compound was 0%.

[2] = tested on: morphine (0.6 mg/kg, s.c.)-induced emesis in ferrets; experiment: Morphine-induced acute emetic model in male ferrets; format: in vivo, ferret; conditions: for Retching Latency / Emesis (Retching + Vomiting) Duration / Retching Duration / Vomiting Duration / Fidget Duration / Licking Duration / Retching Frequency / Vomiting Frequency / Emesis (Retching + Vomiting) Latency / Vomiting Latency / Fidget Latency / Licking Latency / Emesis: Duration / Emesis: Frequency / Emesis: No. of animals (responder/used) / Fidget: Duration / Fidget: Frequency / Fidget: No. of animals (responder/used) / Licking: Duration / Licking: Frequency / Licking: No. of animals (responder/used) / Retching: Duration / Retching: Frequency / Retching: No. of animals (responder/used) / Vomiting: Duration / Vomiting: Frequency / Vomiting: No. of animals (responder/used) / Emesis: Latency / Fidget: Latency / Licking: Latency / Retching: Latency / Vomiting: Latency: ferrets, 10 nmol/kg s.c.; for Retching Latency: morphine (0.6 mg/kg, s.c.) administered 4 h after; for Retching Latency / Emesis (Retching + Vomiting) Duration / Retching Duration / Vomiting Duration / Fidget Duration / Licking Duration / Retching Frequency / Vomiting Frequency / Emesis (Retching + Vomiting) Latency / Vomiting Latency / Fidget Latency / Licking Latency: individual animals and Mean; for Retching Latency / Emesis (Retching + Vomiting) Latency / Vomiting Latency: no emetic response = 30 min; for Emesis (Retching + Vomiting) Duration / Retching Duration / Vomiting Duration / Fidget Duration / Licking Duration / Retching Frequency / Vomiting Frequency / Emesis (Retching + Vomiting) Latency / Vomiting Latency / Fidget Latency / Licking Latency: morphine administered 4 h after; for Emesis (Retching + Vomiting) Duration / Retching Duration / Vomiting Duration: cumulative total duration; for Fidget Latency / Licking Latency: no response = 30 min; for Emesis: Duration / Emesis: Frequency / Emesis: No. of animals (responder/used) / Fidget: Duration / Fidget: Frequency / Fidget: No. of animals (responder/used) / Licking: Duration / Licking: Frequency / Licking: No. of animals (responder/used) / Retching: Duration / Retching: Frequency / Retching: No. of animals (responder/used) / Vomiting: Duration / Vomiting: Frequency / Vomiting: No. of animals (responder/used) / Emesis: Latency / Fidget: Latency / Licking: Latency / Retching: Latency / Vomiting: Latency: morphine 0.6 mg/kg s.c. 4 h after drug; for Emesis: Latency / Fidget: Latency / Licking: Latency / Retching: Latency / Vomiting: Latency: non-responders counted as 30 min; for Comment: Anti-Emetic Activity (inhibition) on morphine-induced emesis: male ferrets, summary of the morphine experiments
Method: Example 6—In-Vivo Effect of GIP Receptor Agonist Peptides on Emesis in Morphine Induced Emesis Model in Live Male Ferrets
Effect of subcutaneously administered GIP receptor agonist peptide in morphine-induced acute emetic model.
To evaluate the antiemetic effect, the GIP receptor agonist peptides other than natural human GIP were subcutaneously administered into male ferrets 30 minutes before morphine administration. […]. Up to 60 minutes after morphine administration, the condition of the ferrets was monitored to record the frequencies and time points of abdominal contraction motions, vomiting behaviors, licking with the tongue, and fidgety behavior occurring
Effects of Subcutaneously Administered GIP Receptor Agonist Peptides in Morphine-Induced Acute Emetic Model
30 nmol/kg of Compounds 3 and 5 were dissolved with a vehicle (0.09 w/v % tween 80/10% DMSO/saline), respectively, to prepare test solutions. […] of the test solutions and the vehicle were subcutaneously administered to ferrets (4 in each group), respectively. At the time of each of 4 hours, after administration, 0.6 mg/kg of morphine was subcutaneously administered. […] See results in Tables 6, 7 and 8.
(§1) 10 nmol/kg of each compound dissolved with a vehicle (0.09 w/v % tween 80/10% DMSO/saline) respectively, to prepare test solutions. […] of the test solutions and the vehicle were subcutaneously administered to ferrets (4 in each group), respectively. At the time of each of 4 hours, or 120 hours after administration, 0.6 mg/kg of morphine was subcutaneously administered. Up to 360 minutes after morphine administration, the condition of the ferrets was monitored to record the frequencies and time points of abdominal contraction motions, vomiting behaviors, licking with the tongue, and fidgety behavior occurring.
as §1, with “30 nmol/kg” for “10 nmol/kg”, “80/10% DMSO/saline),respectively,” for “80/10% DMSO/saline) respectively,”

## YAibEGTFISDYSIALDKI(Lys-(ethylene glycol)2-C15 diacid)QQDFVNWLLAQRG-OH [Compound 25]
[1]
  Selectivity Ratio (B/A): >100,000
[2]
  Retching Latency: 30 min
  Emesis (Retching + Vomiting) Duration: 0 min (4×) and 0.0 min
  Retching Duration: 0 min
  Vomiting Duration: 0 min
  Fidget Duration: 0 min (4×) and 0.0 min
  Licking Duration: 0 min (4×) and 0.0 min
  Retching Frequency: 0
  Vomiting Frequency: 0
  Emesis (Retching + Vomiting) Latency: 30 min
  Vomiting Latency: 30 min
  Fidget Latency: 30 min (4×) and 30.0 min
  Licking Latency: 30 min (4×) and 30.0 min
  Emesis: Duration: 0.0 ± 0.0 min
  Emesis: Frequency: 0.0 ± 0.0
  Emesis: No. of animals (responder/used): 0/4 #
  Fidget: Duration: 0.0 ± 0.0^ min
  Fidget: Frequency: 0.0 ± 0.0
  Fidget: No. of animals (responder/used): 0/4 #
  Licking: Duration: 0.0 ± 0.0^ min
  Licking: Frequency: 0.0 ± 0.0
  Licking: No. of animals (responder/used): 0/4 #
  Retching: Duration: 0.0 ± 0.0 min
  Retching: Frequency: 0.0 ± 0.0
  Retching: No. of animals (responder/used): 0/4 #
  Vomiting: Duration: 0.0 ± 0.0 min
  Vomiting: Frequency: 0.0 ± 0.0
  Vomiting: No. of animals (responder/used): 0/4 #
  Emesis: Latency: 30.0 ± 0.0 min
  Fidget: Latency: 30.0 ± 0.0 min
  Licking: Latency: 30.0 ± 0.0 min
  Retching: Latency: 30.0 ± 0.0 min
  Vomiting: Latency: 30.0 ± 0.0 min
  Comment: Anti-Emetic Activity (inhibition) on morphine-induced emesis: 100% inhibition

## YAibEGTFISDYSIELDK(Lys-(ethylene glycol)2-C15 diacid)AAQAFIEWLLAQGPSSGAPPPS-NH2 [Compound 20]
[1]
  Selectivity Ratio (B/A): >100,000
[2]
  Retching Latency: 30 min
  Emesis (Retching + Vomiting) Duration: 0 min (4×) and 0.0 min
  Retching Duration: 0 min
  Vomiting Duration: 0 min
  Fidget Duration: 0 min (4×) and 0.0 min
  Licking Duration: 0 min (4×) and 0.0 min
  Retching Frequency: 0
  Vomiting Frequency: 0
  Emesis (Retching + Vomiting) Latency: 30 min
  Vomiting Latency: 30 min
  Fidget Latency: 30 min (4×) and 30.0 min
  Licking Latency: 30 min (4×) and 30.0 min
  Emesis: Duration: 0.0 ± 0.0 min
  Emesis: Frequency: 0.0 ± 0.0
  Emesis: No. of animals (responder/used): 0/4 #
  Fidget: Duration: 0.0 ± 0.0^ min
  Fidget: Frequency: 0.0 ± 0.0
  Fidget: No. of animals (responder/used): 0/4 #
  Licking: Duration: 0.0 ± 0.0^ min
  Licking: Frequency: 0.0 ± 0.0
  Licking: No. of animals (responder/used): 0/4 #
  Retching: Duration: 0.0 ± 0.0 min
  Retching: Frequency: 0.0 ± 0.0
  Retching: No. of animals (responder/used): 0/4 #
  Vomiting: Duration: 0.0 ± 0.0 min
  Vomiting: Frequency: 0.0 ± 0.0
  Vomiting: No. of animals (responder/used): 0/4 #
  Emesis: Latency: 30.0 ± 0.0 min
  Fidget: Latency: 30.0 ± 0.0 min
  Licking: Latency: 30.0 ± 0.0 min
  Retching: Latency: 30.0 ± 0.0 min
  Vomiting: Latency: 30.0 ± 0.0 min
  Comment: Anti-Emetic Activity (inhibition) on morphine-induced emesis: 100% inhibition
